Counter-ions that a name gives are not always drawn. Like-named read-outs stand apart in the source and are kept apart here.
Biological target: T1, menin and MLL (menin, Flag tagged; biotinylated MLL1 peptide 1-46aa) (Homo sapiens, UniProt O00255)
T1 sequence (O00255 1-610): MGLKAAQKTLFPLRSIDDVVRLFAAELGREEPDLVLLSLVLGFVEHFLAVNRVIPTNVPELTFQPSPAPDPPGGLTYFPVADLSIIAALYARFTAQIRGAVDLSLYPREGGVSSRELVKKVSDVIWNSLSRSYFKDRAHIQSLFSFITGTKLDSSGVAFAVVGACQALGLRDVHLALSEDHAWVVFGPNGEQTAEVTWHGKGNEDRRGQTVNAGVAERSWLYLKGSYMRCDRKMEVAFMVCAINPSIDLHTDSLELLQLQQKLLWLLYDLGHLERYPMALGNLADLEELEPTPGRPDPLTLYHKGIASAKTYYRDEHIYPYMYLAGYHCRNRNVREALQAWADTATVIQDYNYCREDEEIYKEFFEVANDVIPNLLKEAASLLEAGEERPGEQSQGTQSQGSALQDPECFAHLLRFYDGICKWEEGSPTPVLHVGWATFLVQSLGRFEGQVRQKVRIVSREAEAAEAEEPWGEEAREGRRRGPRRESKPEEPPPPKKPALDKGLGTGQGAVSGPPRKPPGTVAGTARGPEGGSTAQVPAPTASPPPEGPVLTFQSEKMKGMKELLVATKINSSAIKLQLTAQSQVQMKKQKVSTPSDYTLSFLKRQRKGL
Test: biochemical

[1] = IC50, binding inhibitory activity between menin and MLL, AlphaLISA, 1 nM menin, 10 nM biotinylated MLL1 peptide

Method: Then, the fluorescence signal by AlphaLISA (registered trademark, PerkinElmer Co., Ltd.) was measured using a plate reader (PerkinElmer Co., Ltd., EnVisionXcite).

With `CNc1nc(N(C)[C@H]2C[C@@H](NCc3ccc(-c4cc(F)c(F)c(OC)c4)cc3)C[C@H]2O)c2cc(CC(F)(F)F)sc2n1` [Example 82, (1R,2S,4R)-4-{[(3′,4′-difluoro-5′-methoxy[1,1′-biphenyl]-4-yl)methyl]amino}-2-{methyl[2-(methylamino)-6-(2,2,2-trifluoroethyl)thieno[2,3-d]pyrimidin-4-yl]amino}cyclopentan-1-ol hydrochloride] the IC50 [1] was 22.8 nM.

Work on `CN(c1ncnc2sc(CC(F)(F)F)cc12)[C@H]1C[C@@H](NCc2ccc(-c3cncc4ccccc34)cc2)C[C@H]1O` [Example 83, (1R,2S,4R)-4-({[4-(isoquinolin-4-yl)phenyl]methyl}amino)-2-{methyl[6-(2,2,2-trifluoroethyl)thieno[2,3-d]pyrimidin-4-yl]amino}cyclopentan-1-ol hydrochloride] yielded an IC50 [1] of 4.9 nM.

Work on `COc1cc(-c2ccc(CN[C@H]3C[C@@H](O)[C@@H](N(C)c4ncnc5sc(CC(F)(F)F)cc45)C3)cc2)nnc1Cl` [Example 84, (1R,2S,4R)-4-({[4-(6-chloro-5-methoxypyridazin-3-yl)phenyl]methyl}amino)-2-{methyl[6-(2,2,2-trifluoroethyl)thieno[2,3-d]pyrimidin-4-yl]amino}cyclopentan-1-ol hydrochloride] yielded an IC50 [1] of 2.7 nM.

With `CN(c1ncnc2sc(CC(F)(F)F)cc12)[C@H]1C[C@@H](NCc2ccc(-c3cc(F)cc4c3cnn4S(C)(=O)=O)cc2)C[C@H]1O` [Example 85, (1R,2S,4R)-4-[({4-[6-fluoro-1-(methanesulfonyl)-1H-indazol-4-yl]phenyl}methyl)amino]-2-{methyl[6-(2,2,2-trifluoroethyl)thieno[2,3-d]pyrimidin-4-yl]amino}cyclopentan-1-ol hydrochloride] the IC50 [1] was 4 nM.

Molecule `CN(c1ncnc2sc(CC(F)(F)F)cc12)[C@H]1C[C@@H](NCc2ccc(-c3cccc(CS(C)(=O)=O)c3)cc2)C[C@H]1O` [Example 86, (1R,2S,4R)-4-[({3′-[(methanesulfonyl)methyl][1,1′biphenyl]-4-yl}methyl)amino]-2-{methyl[6-(2,2,2 trifluoroethyl)thieno[2,3-d]pyrimidin-4-yl]amino}cyclopentan-1-ol hydrochloride] has an IC50 [1] of 20.9 nM.

`CNc1nc(N(C)[C@H]2C[C@@H](NCc3ccc(-c4ccc(F)c(OC)c4F)cc3)C[C@H]2O)c2cc(CC(F)(F)F)sc2n1` [Example 87, (1R,2S,4R)-4-{[(2′,4′-difluoro-3′-methoxy[1,1′-biphenyl]-4-yl)methyl]amino}-2-{methyl[2-(methylamino)-6-(2,2,2-trifluoroethyl)thieno[2,3-d]pyrimidin-4-yl]amino}cyclopentan-1-ol hydrochloride] gave an IC50 [1] of 6.6 nM.

Molecule `COc1cc(-c2ccc(CN[C@H]3C[C@@H](O)[C@@H](N(C)c4ncnc5sc(CC(F)(F)F)cc45)C3)cc2)cnc1C(F)(F)F` [Example 88, (1R,2S,4R)-4-[({4-[5-methoxy-6-(trifluoromethyl)pyridin-3-yl]phenyl}methyl)amino]-2-{methyl[6-(2,2,2-trifluoroethyl)thieno[2,3-d]pyrimidin-4-yl]amino}cyclopentan-1-ol hydrochloride] has an IC50 [1] of 27.8 nM.

`COc1cc(-c2ccc(CN[C@H]3C[C@@H](O)[C@@H](N(C)c4ncncc4Oc4ccc(F)cc4C(=O)N(C(C)C)C(C)C)C3)cc2)nnc1OC` [Example 89, 2-[(4-{[(1S,2R,4R)-4({[4-(5,6-dimethoxypyridazin-3-yl)phenyl]methyl}amino)-2-hydroxycyclopentyl](methyl)amino}pyrimidin-5-yl)oxy]-5-fluoro-N,N-di(propan-2-yl)benzamide hydrochloride] gave an IC50 [1] of 5.6 nM.

For `COc1nc(N(C)[C@H]2C[C@@H](NCc3ccc(-c4cc(OC)c(Cl)nn4)cc3)C[C@H]2O)c2cc(CC(F)(F)F)sc2n1` [Example 90, (1R,2S,4R)-4-({[4-(6-chloro-5methoxypyridazin-3-yl)phenyl]methyl}amino)-2-{[2-methoxy-6-(2,2,2-trifluoroethyl)thieno[2,3-d]pyrimidin-4-yl](methyl)amino}cyclopentan1-ol hydrochloride], the IC50 was 1.2 nM.

Work on `COc1nc(N(C)[C@H]2C[C@@H](NCc3ccc(-c4cnc(F)c(OC)c4)cc3)C[C@H]2O)c2cc(CC(F)(F)F)sc2n1` [Example 91, (1R,2S,4R)-4-({[4-(6-fluoro-5-methoxypyridin-3yl)phenyl]methyl}amino)-2{[2-methoxy6-(2,2,2-trifluoroethyl)thieno[2,3-d]pyrimidin-4-yl](methyl)amino}cyclopentan-1-ol hydrochloride] yielded an IC50 [1] of 1.3 nM.

Work on `CNc1ncc(-c2ccc(CN[C@H]3C[C@@H](O)[C@@H](N(C)c4ncnc5sc(CC(F)(F)F)cc45)C3)cc2)cc1OC` [Example 92, (1R,2S,4R)-4-[({4-[5-methoxy-6-(methylamino)pyridin-3-yl]phenyl}methyl)amino]-2-{methyl[6-(2,2,2-trifluoroethyl)thieno[2,3-d]pyrimidin-4-yl]amino}cyclopentan-1-ol hydrochloride] yielded an IC50 [1] of 1.5 nM.

With `COc1nc(N(C)[C@H]2C[C@@H](NCc3ccc(-c4cnc(S(C)(=O)=O)c(OC)c4)cc3)C[C@H]2O)c2cc(CC(F)(F)F)sc2n1` [Example 94, (1R,2S,4R)-4-[({4-[6-(methanesulfonyl)-5-methoxypyridin-3-yl]phenyl}methyl)amino]-2-{[2-methoxy-6-(2,2,2-trifluoroethyl)thieno[2,3-d]pyrimidin-4-yl](methyl)amino}cyclopentan-1-ol hydrochloride] the IC50 [1] was 2.1 nM.

Work on `COc1cc(-c2ccc(CN[C@H]3CC[C@@H](N(C)c4ncnc5sc(CC(F)(F)F)cc45)C3)cc2)nnc1OC` [Example 95, (1R,3S)-N^3-{[4-(5,6-dimethoxypyridazin-3-yl)phenyl]methyl}-N^1-methyl-N^1-[6-(2,2,2-(trifluoroethyl)thieno[2,3-d]pyrimidin-4-yl]cyclopentane-1,3-diamine hydrochloride] yielded an IC50 [1] of 1.2 nM.

For `COc1ncc(-c2ccc(CN[C@H]3C[C@@H](O)[C@@H](N(C)c4ncnc5sc(CC(F)(F)F)cc45)C3)cc2)nc1OC` [Example 96, (1R,2S,4R)-4-({[4-(5,6-dimethoxypyrazin-2-yl)phenyl]methyl}amino)-2-{methyl[6-(2,2,2-trifluoroethyl)thieno[2,3-d]pyrimidin-4-yl]amino}cyclopentan-1-ol hydrochloride], the IC50 was 2.7 nM.

With `COc1cnc(-c2ccc(CN[C@H]3C[C@@H](O)[C@@H](N(C)c4ncnc5sc(CC(F)(F)F)cc45)C3)cc2)nc1OC` [Example 97, (1R,2S,4R)-4-({[4-(4,5-dimethoxypyrimidin-2-yl)phenyl]methyl}amino)-2-{methyl[6-(2,2,2-trifluoroethyl)thieno[2,3-d]pyrimidin-4-yl]amino}cyclopentan-1-ol hydrochloride] the IC50 [1] was 3.9 nM.

With `COc1cc(-c2ccc(CN[C@H]3C[C@@H](O)[C@@H](N(C)c4ncnc5sc(CC(F)(F)F)cc45)C3)cc2)nnc1N(C)C` [Example 98, (1R,2S,4R)-4-[({4-[6-(dimethylamino)-5-methoxypyridazin-3-yl]phenyl}methyl)amino]-2-{methyl[6-(2,2,2-trifluoroethyl)thieno[2,3-d]pyrimidin-4-yl]amino}cyclopentan-1-ol hydrochloride] the IC50 [1] was 1.9 nM.

`COc1cc(-c2ccc(CN[C@H]3C[C@@H](O)[C@@H](N(C)c4ncnc5sc(CC(F)(F)F)cc45)C3)cc2)nnc1C#N` [Example 99, 6-[4-({[(1R,3R,4S)-3-hydroxy-4-{methyl[6-(2,2,2-trifluoroethyl)thieno[2,3-d]pyrimidin-4-yl]amino}cyclopentyl]amino}methyl)phenyl]-4-methoxypyridazine-3-carbonitrile hydrochloride] showed an IC50 [1] of 1.1 nM.

With `COc1cc(-c2ccc(CN[C@H]3C[C@@H](O)[C@@H](N(C)c4ncncc4Oc4ccc(F)cc4-c4cncnc4C(C)C)C3)cc2)nnc1OC` [Example 100, (1R,2S,4R)-4-({[4-(5,6-dimethoxypyridazin-3-yl)phenyl]methyl}amino)-2-[(5-{4-fluoro-2-[4-(propan-2-yl)pyrimidin-5-yl]phenoxy}pyrimidin-4-yl)(methyl)amino]cyclopentan-1-ol hydrochloride] the IC50 [1] was 2.5 nM.

`COc1cc(-c2ccc(CN[C@H]3C[C@@H](O)[C@@H](N(C)c4ncncc4Oc4ccc(F)cc4-c4ccccc4C(C)C)C3)cc2)nnc1OC` [Example 101, (1R,2S,4R)-4-({[4-(5,6-dimethoxypyridazin-3-yl)phenyl]methyl}amino)-2-[(5-{[5-fluoro-2′-(propan-2-yl)[1,1′-biphenyl]-2-yl]oxy}pyrimidin-4-yl)(methyl)amino]cyclopentan-1-ol hydrochloride] was tested, and the IC50 [1] was 2.7 nM.

For `COc1cc(-c2ccc(CN[C@H]3C[C@@H](O)[C@@H](N(C)c4ncncc4Oc4ccc(F)cc4-c4ccnn4C(C)C)C3)cc2)nnc1OC` [Example 102, (1R,2S,4R)-4-({[4-(5,6-dimethoxypyridazin-3-yl)phenyl]methyl}amino)-2-[(5-{4-fluoro-2-[1-(propan-2-yl)-1H-pyrazol-5-yl]phenoxy}pyrimidin-4-yl)(methyl)amino]cyclopentan-1-ol hydrochloride], the IC50 [1] was 2.7 nM.

Reference: patent US11236106B2, “Cycloalkane-1,3-diamine derivative” (Daiichi Sankyo Company, Limited, priority 2018, dated 2022)
